Measurements as given in paper PMC9234964, “Design, Synthesis, and Biological Evaluation of a Novel Series of 4-Guanidinobenzoate Derivatives as Enteropeptidase Inhibitors with Low Systemic Exposure for the Treatment of Obesity” (Journal of Medicinal Chemistry, 2022).
Counter-ions that a name gives are not always drawn. Like-named read-outs stand apart in the source and are kept apart here.

Experiments:
human enteropeptidase [1] = biological target: T1, human enteropeptidase (Homo sapiens, UniProt P98073); assay: Human enteropeptidase enzyme assay; assay type: biochemical
T1 construct: purchased ITSI-Biosciences, LLC #REN-260
Method: Human recombinant enteropeptidase (#REN-260, ITSI-Biosciences, LLC) was diluted with an assay buffer (50 mM tricine (pH 8.0), 0.01(w/v)% Tween 20, 10 mM CaCl2) to prepare a 24 mU/mL enzyme solution. Subsequently, 5FAM–Abu–[…]CPQ2)–Lys–Lys–NH2 (purity: 97.2%, CPC Scientific, Inc.) was diluted with an assay buffer to prepare a 2.1 μM substrate solution. Compounds were dissolved in DMSO and then diluted in the assay buffer. The compound solution (5 μL/well) and the substrate solution (5 μL/well) were added to a 384-well black plate (#784076, Greiner Bio-One) and mixed. Then, the enzyme solution (5 μL/well) was added to the plate and mixed to start the reaction. The fluorescence intensity was measured at an excitation wavelength of 485 nm and a fluorescence wavelength of 535 nm using a fluorescence plate reader EnVision (PerkinElmer Inc.). Also, the same reaction as above was performed except that the test compound was not added (test compound non-supplemented group). In addition, the same reaction as above was performed except that neither the test compound nor the enzyme was added (control group).
Inhibition rate (%) = (1 – (fluorescence intensity of the test compound supplemented group – fluorescence intensity of the control group)/(fluorescence intensity of the test compound non-supplemented group – fluorescence intensity of the control group)) × 100.

human enteropeptidase [2] = biological target: T1, human enteropeptidase; assay: Dissociation assay (recovery of active enzyme after rapid dilution); assay type: biochemical; settings: rapid dilution after 2 h preincubation of compound and enzyme
Description: Although not all reaction constants for 1c could be identified, the in vitro IC50 value could be used as an indicator of the combination of k1, k–1, and k2. In this case, the IC50 value of a compound is derived from its affinity for enteropeptidase (k1 and k–1) and its reactivity against enteropeptidase (k2). […] As the affinity of a compound for enteropeptidase is expected to largely contribute to the IC50 value based on initial velocities (IC50(initial)) relative to the IC50 value based on the steady state (IC50(app)), we performed chemical modifications based on IC50(initial). […] Because T1/2 can be an indicator of k3, we focused on compounds with low IC50(initial) values and long T1/2 values.
For dissociation assay, compounds were dissolved in DMSO and then diluted in assay buffer (50 mM Tricine pH 8.0, 0.01(w/v)% Tween20, 10 mM CaCl2). 10 μL of compound solution was added in 96-well plate (corning), and then, 10 μL of 100 mU/mL human recombinant enteropeptidase (ITSI-Biosciences) solution was added into the plate and incubated at room temperature for 2 h. […] After incubation, 2 μL of the compound-enzyme mixture was transferred to a 96-well black plate (Corning) and 200 μL of substrate solution (3 μM 5FAM–Abu–[…]CPQ2)–Lys–Lys–NH2 (CPC Scientific)) was added into the well. By rapid dilution, the inhibitor concentration went to 10-fold below the IC50 from 10-fold above the IC50. The fluorescence was measured each 2 min at excitation wavelength 485 nm and emission wavelength 535 nm by EnVision (Perkin Elmer). The progress curves were fitted to following equation to determine the values for koff and dissociation half-life T1/2 according to the following equations. [drawing 4] 1 where t is time and F is fluorescence from initial rate vo to steady state rate vs. [drawing 5] 2

High-Fat-Diet-Fed Mice = assay: Increase in fecal protein output in high-fat-diet-fed mice; assay type: in vivo, mouse; settings: 10 mg/kg, oral
Method: A high-fat diet (HFD)-fed mouse (D12079B diet, male, 14–21 weeks old) was used for the in vivo assay. For compound screening, mice were orally administered with either the test compound (10 mg/kg) or 0.5% methylcellulose (MC) as a vehicle control. For the assessment of efficacy by systemic exposure of the compound, mice were subcutaneously administered with compound 2a (10 mg/kg) or saline as a vehicle control and compared with those administered oral treatment (60 mg/kg). Doses were selected to achieve equivalent systemic exposure as the area under the curve over 24 h based on pharmacokinetic data of both oral and subcutaneous administration. Whole feces were collected overnight, and the fecal protein output was evaluated as described previously.[33]

[3] = Kinetic aqueous solubility at pH 1.2/6.8; assay type: physicochemical; settings: aqueous medium, kinetic from dmso stock
DIO mice = settings: growth phase; cited from earlier work
[4] = Aqueous stability at pH 1.2/6.8; assay type: physicochemical; settings: 24 h; for stability at pH 1.2 (% decomposed): pH 1.2, 37 °C; for stability at pH 6.8 (% decomposed): pH 6.8, 37 °C
Method: Sample solutions in pH 1.2/6.8 media (first/second fluids for the disintegration test in the Japanese Pharmacopoeia 17th edition, including 10% dimethyl sulfoxide if needed, 10 μg/mL) were prepared for the compounds and incubated at 37 °C. The sample solutions were measured initially and at 24 h using HPLC, and peak analysis was conducted. Residual contents (%) of the compounds in pH 1.2/6.8 media at 37 °C after 24 h of incubation of the initial solutions were calculated using the peak areas.

[5] = PAMPA (parallel artificial membrane permeability assay); assay type: in vitro ADME; settings: for Papp: PAMPA
[6] = 6 min incubation of enzyme, substrate and compound at room temperature, 95% confidence intervals in parentheses, read-out: Human enteropeptidase IC50(initial)
[7] = 120 min incubation of enzyme, substrate and compound at room temperature, 95% confidence intervals in parentheses, read-out: Human enteropeptidase IC50(app)
[8] = pH 1.2, simulated gastric fluid, read-out: Kinetic aqueous solubility at pH 1.2
[9] = pH 6.8, aqueous buffer, read-out: Kinetic aqueous solubility at pH 6.8
[10] = 6 min, supplement csv, unit inferred, read-out: human enteropeptidase IC50 (6 min)
[11] = 120 min, supplement csv, unit inferred, read-out: human enteropeptidase IC50 (120 min)

T1 sequence (P98073 whole entry): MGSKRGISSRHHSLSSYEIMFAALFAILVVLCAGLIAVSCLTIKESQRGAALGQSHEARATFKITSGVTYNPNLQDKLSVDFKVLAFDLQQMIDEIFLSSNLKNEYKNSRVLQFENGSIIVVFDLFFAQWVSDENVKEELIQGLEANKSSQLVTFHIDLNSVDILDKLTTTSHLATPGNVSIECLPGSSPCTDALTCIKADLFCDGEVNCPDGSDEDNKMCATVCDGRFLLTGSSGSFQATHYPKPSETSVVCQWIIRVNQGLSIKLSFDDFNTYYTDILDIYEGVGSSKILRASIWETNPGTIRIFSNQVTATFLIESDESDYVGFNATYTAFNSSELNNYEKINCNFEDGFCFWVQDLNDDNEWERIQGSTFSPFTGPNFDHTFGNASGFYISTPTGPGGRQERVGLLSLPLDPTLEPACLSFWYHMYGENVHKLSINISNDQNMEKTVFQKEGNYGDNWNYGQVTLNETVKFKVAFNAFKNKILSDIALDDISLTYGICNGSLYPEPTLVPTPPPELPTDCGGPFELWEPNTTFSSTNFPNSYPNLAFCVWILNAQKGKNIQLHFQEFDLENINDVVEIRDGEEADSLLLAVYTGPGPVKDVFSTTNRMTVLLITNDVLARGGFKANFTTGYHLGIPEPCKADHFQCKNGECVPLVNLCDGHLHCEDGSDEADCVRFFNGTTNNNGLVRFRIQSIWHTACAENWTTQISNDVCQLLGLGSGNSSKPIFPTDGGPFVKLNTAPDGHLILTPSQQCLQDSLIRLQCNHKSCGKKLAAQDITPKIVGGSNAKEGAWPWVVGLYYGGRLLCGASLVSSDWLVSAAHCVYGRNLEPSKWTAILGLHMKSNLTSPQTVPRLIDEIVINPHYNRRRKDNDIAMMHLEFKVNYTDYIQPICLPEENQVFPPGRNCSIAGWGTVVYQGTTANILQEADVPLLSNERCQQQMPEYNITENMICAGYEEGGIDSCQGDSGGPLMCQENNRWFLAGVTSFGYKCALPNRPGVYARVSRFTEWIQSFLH

IC50 (human enteropeptidase [1]; [6]) [nM]	IC50 (human enteropeptidase [1]; [7]) [nM]	Structure (SMILES)	fecal protein output (fold of 2a) (High-Fat-Diet-Fed Mice)	further results
7.4	0.81	N=C(N)Nc1ccc(C(=O)Oc2ccc(CC(=O)N[C@@H](CC(=O)O)C(=O)O)cc2)c(F)c1 [3d, N-({4-[(4-Carbamimidamido-2-fluorobenzoyl)oxy]phenyl}acetyl)-L-aspartic Acid]	–	T1/2, half-time of dissociation from human enteropeptidase (human enteropeptidase [2]): 6.1 min
180	14	N=C(N)Nc1ccc(C(=O)Oc2ccc3c(c2)OC(CC(=O)N[C@@H](CC(=O)O)C(=O)O)C3)cc1 (stereo partly drawn) [5a, N-({6-[(4-Carbamimidamidobenzoyl)oxy]-2,3-dihydro-1-benzofuran-2-yl}acetyl)-L-aspartic Acid]	–	–
65	3.2	N=C(N)Nc1ccc(C(=O)Oc2ccc(C(=O)N[C@@H](CC(=O)O)C(=O)O)cc2)cc1.O=C(O)C(F)(F)F [4c, N-{4-[(4-Carbamimidamidobenzoyl)oxy]benzoyl}-L-aspartic Acid Trifluoroacetic Acid Salt]	0.88 fold of 2a	solubility kinetic [3, 8]: 69 µg/mL; solubility kinetic [3, 9]: > 88 µg/mL
> 3300	680	Cc1cc(C(=O)Oc2ccc(CC(=O)N[C@@H](CC(=O)O)C(=O)O)cc2)ccc1NC(=N)N [3a, N-({4-[(4-Carbamimidamido-3-methylbenzoyl)oxy]phenyl}acetyl)-L-aspartic Acid]	–	fold decrease in IC50(initial) relative to 2a (human enteropeptidase [1]; 6 min, methyl group at the 3-position): more than 30 fold
13	0.82	N=C(N)Nc1ccc(C(=O)Oc2cccc(C(=O)N[C@@H](CC(=O)O)C(=O)O)c2)cc1.O=C(O)C(F)(F)F [4b, N-{3-[(4-Carbamimidamidobenzoyl)oxy]benzoyl}-L-aspartic Acid Trifluoroacetic Acid Salt]	0.82 fold of 2a	solubility kinetic [3, 8]: > 91 µg/mL; solubility kinetic [3, 9]: > 89 µg/mL; stability at pH 1.2 (% decomposed) [4]: 3.9 % decomposed; stability at pH 6.8 (% decomposed) [4]: 8.6 % decomposed
940	54	Cc1cc(NC(=N)N)ccc1C(=O)Oc1ccc(CC(=O)N[C@@H](CC(=O)O)C(=O)O)cc1 [3b, N-({4-[(4-Carbamimidamido-2-methylbenzoyl)oxy]phenyl}acetyl)-L-aspartic Acid]	–	T1/2, half-time of dissociation from human enteropeptidase (human enteropeptidase [2]): >120 min
26	1.8	N=C(N)Nc1ccc(C(=O)Oc2cccc(C3=NO[C@@](CC(=O)O)(C(=O)O)C3)c2)cc1 [6c, (5S)-3-{3-[(4-Carbamimidamidobenzoyl)oxy]phenyl}-5-(carboxymethyl)-4,5-dihydro-1,2-oxazole-5-carboxylic Acid]	1.23 fold of 2a	–
57	5.6	N=C(N)Nc1ccc(C(=O)Oc2ccc(CC(=O)N[C@@H](CC(=O)O)C(=O)O)cc2)c(Cl)c1 [3c, N-({4-[(4-Carbamimidamido-2-chlorobenzoyl)oxy]phenyl}acetyl)-L-aspartic Acid]	–	T1/2, half-time of dissociation from human enteropeptidase (human enteropeptidase [2]): 14 min
32	1.6	N=C(N)Nc1ccc(C(=O)Oc2cccc(CC(=O)N[C@@H](CC(=O)O)C(=O)O)c2)cc1.O=C(O)C(F)(F)F [4a, N-({3-[(4-Carbamimidamidobenzoyl)oxy]phenyl}acetyl)-L-aspartic Acid Trifluoroacetic Acid Salt]	0.97 fold of 2a	solubility kinetic [3, 8]: > 86 µg/mL; solubility kinetic [3, 9]: > 92 µg/mL; stability at pH 1.2 (% decomposed) [4]: 2.8 % decomposed; stability at pH 6.8 (% decomposed) [4]: 5.8 % decomposed

More lines, now with the values behind:

Structure (SMILES)	IC50 (human enteropeptidase [1]; [6]) [nM]	IC50 (human enteropeptidase [1]; [7]) [nM]	fecal protein output (fold of 2a) (High-Fat-Diet-Fed Mice)	further results
N=C(N)Nc1ccc(C(=O)Oc2ccc3c(c2)OC[C@@H]3CC(=O)N[C@@H](CC(=O)O)C(=O)O)cc1 [(R)-5b, N-({(3R)-6-[(4-Carbamimidamidobenzoyl)oxy]-2,3-dihydro-1-benzofuran-3-yl}acetyl)-L-aspartic Acid]	84	7.7	1.26 fold of 2a	–
CC(=O)N[C@@H](C)C(=O)N[C@@H](Cc1ccccc1)C(=O)N[C@@H](CCCCN)B1O[C@@H]2C[C@@H]3C[C@@H](C3(C)C)[C@]2(C)O1 [OBE-2008]	–	–	–	rate of body weight gain (DIO mice): significantly reduced
N=C(N)Nc1ccc(C(=O)Oc2ccc(CC(=O)N[C@@H](CCC(=O)O)C(=O)O)cc2)cc1 [2c, N-({4-[(4-Carbamimidamidobenzoyl)oxy]phenyl}acetyl)-L-glutamic Acid Hydrochloride]	120	7.9	–	–
N=C(N)Nc1ccc(C(=O)Oc2ccc(CC(=O)N[C@@H](CC(N)=O)C(=O)O)cc2)cc1 [2b, N^2-({4-[(4-Carbamimidamidobenzoyl)oxy]phenyl}acetyl)-L-asparagine Trifluoroacetic Acid Salt]	310	23	–	–
CS(=O)(=O)O.N=C(N)Nc1ccc(C(=O)Oc2ccccc2)cc1 [1b]	–	–	–	IC50 (human enteropeptidase [1]; [10]): 5600 nM; IC50 (human enteropeptidase [1]; [11]): 400 nM; PAMPA at pH 5.0 ([5]; pH 5.0): <2 nm/sec; PAMPA at pH 7.4 ([5]; pH 7.4): <2 nm/sec
N=C(N)Nc1ccc(C(=O)Oc2ccc(CC(=O)NCC(=O)O)cc2)cc1.O=C(O)C(F)(F)F [1c, N-({4-[(4-Carbamimidamidobenzoyl)oxy]phenyl}acetyl)glycine Trifluoroacetic Acid Salt]	–	–	–	IC50 (human enteropeptidase [1]; [10]): 540 nM; IC50 (human enteropeptidase [1]; [11]): 30 nM; PAMPA at pH 5.0 ([5]; pH 5.0): 2 nm/sec; PAMPA at pH 7.4 ([5]; pH 7.4): 2 nm/sec
Cc1cc(OC(=O)c2ccc(NC(=N)N)cc2)no1.Cl [1a]	–	–	–	IC50 (human enteropeptidase [1]; [10]): 1500 nM; Papp ([5]; pH 7.4, read-out: PAMPA at pH 7.4): 0.3 ×10⁻⁶ cm/s; Papp ([5]; pH 5.0, read-out: PAMPA at pH 5.0): 0.5 ×10⁻⁶ cm/s
